According to patent publication US12351556B2, “Pyridin-2(1H)one derivatives, their preparation and their use for the treatment of pain” (INSTITUT NATIONAL DE LA SANTE ET DE LA RECHERCHE MEDICALE …, priority 2019, dated 2025):
Entries after “also recorded” stand apart in the source; their conditions may differ.

How the values were obtained:
[1] = system: inflammatory MA (face CFA model); assay: Face Complete Freund's Adjuvant (CFA) model of inflammatory mechanical allodynia; format: in vivo; conditions: rat, intracisternal 5 μL at 100 μM, 30 min before CFA
Procedure: FIG. 1 illustrates the results obtained by the intracisternal application of compounds 19-24, 66-72 and 74-82. These compounds prevent face MA in a rat model of inflammatory pain (Complete Freund's Adjuvant (CFA), n=4-6 rats for each compound). For this assay, compounds (5 μL at 100 μM) or control vehicle were intra-cisternally administred 30 min before CFA injection.
Face Complete Freund's Adjuvant (CFA) Model.
CFA (Becton Dickinson) was dissolved in saline solution containing Tween 80 and paraffin oil and conserved at 4° C. For the behavioral tests, animals were briefly (<2 min) anesthetized using a mask with 2% isoflurane and received a subcutaneous injection of 25 μL of CFA (2.5 mg/kg) solution into the right vibrissa pad using a 27 Ga needle coupled to a 25 μL Hamilton syringe, as described previously. After injection, animals were awakened from anesthesia and placed in the behavioral experimental room, followed by a 120 min mechanical testing period.
Intracisternal Injection:
For investigating the effects of synthetized compounds upon mechanical allodynia, animals were briefly (<2 min) anesthetized using a mask with 2% isoflurane and received an intracisternal injection of 5 μL of compound (100 μM) or vehicle alone (saline+1% DMSO) using a 10 μL Hamilton syringe. After recovery (<2 min), rats were placed in an observation field (0.6×0.6 m square) under red light for a period test. 6-g von Frey filament was gently applied every 15 or 30 min onto the orofacial region by a first experimenter. The behavioral responses were observed and quantified by a second experimenter (see below).
Behavioral Responses to Normally Innocuous (6-g Von Frey Filament) Mechanical Stimulation.
The behavioral responses procedure was previously developed by Vos et al. 1994. A rat's response to mechanical stimulation consisted of one or more of the following elements: (1) detection, rat turn head toward stimulus; (2) withdrawal reaction, rat pull paw away or turn head away or pull it briskly backward when stimulation is applied (a withdrawal reaction is assumed to include a detection element preceding the head withdrawal and therefore consists of two responses elements); (3) escape/attack, rats avoid further contact with the stimulus, either passively by moving their bodies away from the stimulus, or actively by attacking the tip of the […]; (4) asymmetric grooming, rats display an uninterrupted series of at least three wash strokes directed to the stimulated area.
The in vivo efficacy of some compounds was evaluated on a rat model of inflammatory MA (face CFA model; Alba-Delgado et al J. Neurosci. 2018, 38, 10489-10504) (FIG. 1). After receiving a subcutaneous injection of 25 μL of CFA (2.5 mg/kg) into the right vibrissa pad, rats develop a MA that lasts days. […] In this model of inflammatory MA, MA was suppressed in compound 69 treated rats, in comparison to animals treated with vehicle (FIG. 2A).

[2] = biological target: p38α MAPK (Homo sapiens (Human), UniProt Q16539); assay: p38 alpha IC50; format: biochemical; conditions: p38 alpha; read-out: Mean IC50
Sequence of p38α MAPK (Q16539 whole entry): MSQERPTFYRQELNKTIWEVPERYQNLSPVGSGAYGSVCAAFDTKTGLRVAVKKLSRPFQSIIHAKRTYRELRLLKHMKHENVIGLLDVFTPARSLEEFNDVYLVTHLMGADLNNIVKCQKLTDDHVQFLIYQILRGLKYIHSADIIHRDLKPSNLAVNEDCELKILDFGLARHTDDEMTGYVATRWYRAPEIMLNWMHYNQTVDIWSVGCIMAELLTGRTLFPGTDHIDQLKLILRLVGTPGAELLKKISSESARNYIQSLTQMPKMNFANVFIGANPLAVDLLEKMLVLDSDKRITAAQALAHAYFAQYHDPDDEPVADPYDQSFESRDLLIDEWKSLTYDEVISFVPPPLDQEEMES
Procedure: Studies were undertaken to identify the possible biological target(s) of compound 69. The activation in neurons of PK such as PKCγ, ERK or p38 MAPK can contribute to pain hypersensitivity. Therefore, it was decided to screen compound 69 toward a panel of 50 PKs that provide a representative sampling of the human kinome (FIG. 3, Table 3) (Biochem. J. 2007, 408, 297-315). In this panel, p38α MAPK was identified as the privileged target, with 19% of kinase residual activity at 10 μM compound concentration.
The selectivity of compound 69 was evaluated at 1 μM toward another panel containing all four p38 MAPK isoforms, ERK1, ERK2 as well as other protein kinases close to p38α MAPK in the kinome phylogenetic tree (FIG. 4, Table 4). […] Its IC50 toward p38α MAPK was determined, showing a value in the micromolar range (IC50=3.0±0.1 μM).

IC50 [2] [nM] | SMILES | prevention of inflammatory MA (allodynic score, 6-g von Frey filament) [1]
5530 | COc1cccc(Nc2c[nH]c(=O)c(-c3cccc4[nH]ccc34)c2)c1 [Compound 122, 3-(1H-Indol-4-yl)-5-((3-methoxyphenyl)amino)pyridin-2(1H)-one] | 
3670 | COc1ccc(Nc2c[nH]c(=O)c(-c3cccc4[nH]ccc34)c2)cc1 [Compound 123, 3-(1H-Indol-4-yl)-5-((4-methoxyphenyl)amino)pyridin-2(1H)-one] | 
1060 | Cc1ccccc1Nc1c[nH]c(=O)c(-c2cccc3[nH]ccc23)c1 [Compound 130, 3-(1H-Indol-4-yl)-5-(o-tolylamino)pyridin-2(1H)-one] | 
1040 | O=c1[nH]cc(Nc2cccc(O)c2)cc1-c1cccc2[nH]ccc12 [Compound 134, 5-((3-hydroxyphenyl)amino)-3-(1H-indol-4-yl)pyridin-2(1H)-one] | 
2720 | O=c1[nH]cc(Nc2ccccc2Br)cc1-c1cccc2[nH]ccc12 [Compound 141, 5-((2-Bromophenyl)amino)-3-(1H-indol-4-yl)pyridin-2(1H)-one] | 
660 | O=c1[nH]cc(Nc2cccc(Br)c2)cc1-c1cccc2[nH]ccc12 [Compound 142, 5-((3-Bromophenyl)amino)-3-(1H-indol-4-yl)pyridin-2(1H)-one] | 
2350 | O=c1[nH]cc(Nc2ccc(Br)cc2)cc1-c1cccc2[nH]ccc12 [Compound 143, 5-((4-Bromophenyl)amino)-3-(1H-indol-4-yl)pyridin-2(1H)-one] | 

More lines, now with the values behind:

SMILES | IC50 [2] [nM] | prevention of inflammatory MA (allodynic score, 6-g von Frey filament) [1]
O=c1[nH]cc(Nc2ccccc2)cc1-c1ccncc1 [Compound 21, 5-(Phenylamino)-[3,4′-bipyridin]-2(1H)-one] |  | comparable gains of activity
O=c1[nH]cc(Nc2ccccc2)cc1-c1cccc2cccnc12 [Compound 23, 5-(Phenylamino)-3-(quinolin-8-yl)pyridin-2(1H)-one] |  | prevented the development of inflammatory MA
O=c1[nH]cc(Nc2ccccc2)cc1-c1cncnc1 [Compound 24, 5-(Phenylamino)-3-(pyrimidin-5-yl)pyridin-2(1H)-one] |  | prevented the development of inflammatory MA
CCOC(=O)c1ccccc1-c1cc(Nc2ccccc2)c[nH]c1=O [Compound 70, Ethyl 2-(2-oxo-5-(phenylamino)-1,2-dihydropyridin-3-yl)benzoate] |  | high activities
O=c1[nH]cc(Nc2ccccc2)cc1-c1ccccc1[N+](=O)[O-] [Compound 72, 3-(2-Nitrophenyl)-5-(phenylamino)pyridin-2(1H)-one] |  | prevented the development of inflammatory MA
CC(=O)c1cccc(-c2cc(Nc3ccccc3)c[nH]c2=O)c1 [Compound 75, 3-(3-Acetylphenyl)-5-(phenylamino)pyridin-2(1H)-one] |  | prevented the development of inflammatory MA
Cc1ccc(-c2cc(Nc3ccccc3)c[nH]c2=O)cc1 [Compound 77, 5-(Phenylamino)-3-(p-tolyl)pyridin-2(1H)-one] |  | prevented the development of inflammatory MA; also recorded: comparable gains of activity
O=c1[nH]cc(Nc2ccccc2)cc1-c1ccc(OC(F)(F)F)cc1 [Compound 79, 5-(Phenylamino)-3-(4-(trifluoromethoxy)phenyl)pyridin-2(1H)-one] |  | prevented the development of inflammatory MA
NC(=O)c1ccc(-c2cc(Nc3ccccc3)c[nH]c2=O)cc1 [Compound 81, 4-(2-Oxo-5-(phenylamino)-1,2-dihydropyridin-3-yl)benzamide] |  | prevented the development of inflammatory MA
O=c1[nH]cc(Nc2ccccc2)cc1-c1ccc(F)cc1F [Compound 82, 3-(2,4-Difluorophenyl)-5-(phenylamino)pyridin-2(1H)-one] |  | prevented the development of inflammatory MA
O=c1[nH]cc(Nc2ccccc2F)cc1-c1cccc2[nH]ccc12 [Compound 118, 5-((2-Fluorophenyl)amino)-3-(1H-indol-4-yl)pyridin-2(1H)-one] | 230 | 
O=c1[nH]cc(Nc2cccc(F)c2)cc1-c1cccc2[nH]ccc12 [Compound 119, 5-((3-Fluorophenyl)amino)-3-(1H-indol-4-yl)pyridin-2(1H)-one] | 1420 | 
O=c1[nH]cc(Nc2ccc(F)cc2)cc1-c1cccc2[nH]ccc12 [Compound 120, 5-((4-Fluorophenyl)amino)-3-(1H-indol-4-yl)pyridin-2(1H)-one] | 430 | 
COc1ccccc1Nc1c[nH]c(=O)c(-c2cccc3[nH]ccc23)c1 [Compound 121, 3-(1H-Indol-4-yl)-5-((2-methoxyphenyl)amino)pyridin-2(1H)-one] | 5250 | 
